Among the data in patent US6399615B1, “Farnesyl protein transferase inhibitors” (Schering Corporation, priority 1997, dated 2002) are IC50 and melting point values, retold here.

One data set relates to COS Cell. The data set can be described thus: COS Cell IC50 (Cell-Based Assay). The settings on record: COS cells. The method, then: (§1) FPT IC50 (inhibition of farnesyl protein transferase, in vitro enzyme assay) and COS Cell IC50 (Cell-Based Assay) were determined following the assay procedures described in WO 95/10516, published Apr. 20, 1995. GGPT IC50 (inhibition of geranylgeranyl protein transferase, in vitro enzyme assay), Cell Mat Assay, and anti-tumor activity (in vivo anti-tumor studies) could be determined by the assay procedures described in WO 95/10516. The disclosure of WO 95/10516 is incorporated herein by reference thereto.

Data set [1] concerns the target farnesyl protein transferase (Homo sapiens, UniProt P49354+P49356). The data set can be described thus: FPT IC50 (inhibition of farnesyl protein transferase, in vitro enzyme assay). Type of data set: biochemical. The method, then: as §1
The test system of another data set is Human tumor cells. As to the kind of experiment: Soft Agar Assay (anchorage-independent growth). The data set is classed as cell-based. The settings on record: colony growth in soft agar. The method, then: Anchorage-independent growth is a characteristic of tumorigenic cell lines. Human tumor cells are suspended in growth medium containing 0.3% agarose and an indicated concentration of a farnesyl transferase inhibitor. The solution is overlayed onto growth medium solidified with 0.6% agarose containing the same concentration of farnesyl transferase inhibitor as the top layer. After the top layer is solidified, plates are incubated for 10-16 days at 37° C. under 5% CO2 to allow colony outgrowth. After incubation, the colonies are stained by overlaying the agar with a solution of MTT (3-[4,5-dimethyl-thiazol-2-yl]-2,5-diphenyltetrazolium bromide, Thiazolyl blue) (1 mg/mL in PBS). Colonies can be counted and the IC50's can be determined.

SMILES strings stand for the structures. pIC50: −log10 of the molar value.

Regarding `NC(=O)[C@H]1C[C@@H]1C(=O)N1CCC([C@H]2c3ncc(Br)cc3CCc3cc(Cl)cc(Br)c32)CC1` [30 (compound 55.0)], the pIC50 (as a rule, −log10 of the IC50, conventionally taken in molar units) was 7.30 in the data set with COS Cell and 8.21 in data set [1].

Compound `COC(=O)[C@H]1C[C@@H]1C(=O)N1CCC([C@H]2c3ncc(Br)cc3CCc3cc(Cl)cc(Br)c32)CC1` [30 (compound 55.1)] had a pIC50 in data set [1] of 7.60.

Turning to `O=C(O)c1ccccc1CC(=O)N1CCC([C@H]2c3ncc(Br)cc3CCc3cc(Cl)cc(Br)c32)CC1` [Example 1], the melting point (usually the temperature of the solid-liquid transition) was 229 °C (dec.). The compound further had a pIC50 in data set [1] of 7.18.

In turn, `O=C(O)Cc1ccc(CC(=O)N2CCC([C@H]3c4ncc(Br)cc4CCc4cc(Cl)cc(Br)c43)CC2)cc1` [Example 3] registered a melting point of 186 to 189 °C. Moreover, the pIC50 in the data set on COS Cell is 6.42. The pIC50 in data set [1] is 8.80.

As to `O=C(O)Cc1cccc(CC(=O)N2CCC([C@H]3c4ncc(Br)cc4CCc4cc(Cl)cc(Br)c43)CC2)c1` [Example 4], the melting point was 205 °C (dec.). Further, in the data set with COS Cell, the pIC50 was 6.40. The compound also had a pIC50 in data set [1] of 8.39.

`O=C(O)[C@H]1CC[C@H](C(=O)N2CCC([C@H]3c4ncc(Br)cc4CCc4cc(Cl)cc(Br)c43)CC2)CC1` [Example 5] had a melting point of 138 to 140 °C. In data set [1], the pIC50 was 7.34.

As for `CC(C)(C)OC(=O)CC1CCC(CC(=O)N2CCC([C@H]3c4ncc(Br)cc4CCc4cc(Cl)cc(Br)c43)CC2)CC1` (stereo partly drawn) [Example 6], the melting point was 86 to 90 °C. In data set [1], this compound showed a pIC50 of 7.72.

The compound `CC(C)(C)OC(=O)C=C1CCC(=CC(=O)N2CCC([C@H]3c4ncc(Br)cc4CCc4cc(Cl)cc(Br)c43)CC2)CC1` [Example 7] yielded a melting point of 113 to 117 °C. The same compound showed a pIC50 in data set [1] of 6.96.

`CC(C)(C)OC(=O)C[C@H]1CC[C@@H](C(=O)N2CCC([C@H]3c4ncc(Br)cc4CCc4cc(Cl)cc(Br)c43)CC2)CC1` [Example 9] displayed a melting point of 98 to 102 °C. Also, the pIC50 in data set [1] was 7.36.

Consider `CC(C)(C)OC(=O)C[C@H]1CC[C@H](C(=O)N2CCC([C@H]3c4ncc(Br)cc4CCc4cc(Cl)cc(Br)c43)CC2)CC1` [Example 10], for which the melting point fell in the range of 98 to 102 °C. Moreover, in data set [1], the pIC50 was 7.04.

Turning to `O=C(Cc1ccccc1C(=O)N1CCC([C@H]2c3ncc(Br)cc3CCc3cc(Cl)cc(Br)c32)CC1)N1CCOCC1` [Example 11], the melting point is 127 to 128 °C. The compound also had a pIC50 in data set [1] of 6.60.

In the case of `O=C(O)C1CCC(CC(=O)N2CCC([C@H]3c4ncc(Br)cc4CCc4cc(Cl)cc(Br)c43)CC2)CC1` (stereo partly drawn) [Example 12], the pIC50 in the data set with COS Cell is 8.00; in the data set with Human tumor cells it was below 6.30; in data set [1], 8.72.

Consider `O=C(O)CC1CCC(CC(=O)N2CCC([C@H]3c4ncc(Br)cc4CCc4cc(Cl)cc(Br)c43)CC2)CC1` (stereo partly drawn) [Example 13], for which the pIC50 in the data set on COS Cell was 8.00; with Human tumor cells it was below 6.30; in data set [1], 8.82.

Regarding `O=C(O)C=C1CCC(=CC(=O)N2CCC([C@H]3c4ncc(Br)cc4CCc4cc(Cl)cc(Br)c43)CC2)CC1` [Example 14], the melting point lay in the range of 161 to 169 °C. In the data set with COS Cell, the pIC50 is 7.26. This compound showed a pIC50 in data set [1] of 8.28.

As to `NC(=O)Cc1ccc(CC(=O)N2CCC([C@H]3c4ncc(Br)cc4CCc4cc(Cl)cc(Br)c43)CC2)cc1` [Example 15], the figures for the pIC50 (in the data set with COS Cell; in the data set with Human tumor cells; in data set [1]) were 7.00, below 6.30 and 8.44, respectively.

`NC(=O)Cc1cccc(CC(=O)N2CCC([C@H]3c4ncc(Br)cc4CCc4cc(Cl)cc(Br)c43)CC2)c1` [Example 16]: the melting point is 119 to 125 °C. This compound also had a pIC50 in the data set on COS Cell of 6.43. For the same compound, the pIC50 in data set [1] was 8.20.

The compound `COC(=O)CNC(=O)Cc1cccc(CC(=O)N2CCC([C@H]3c4ncc(Br)cc4CCc4cc(Cl)cc(Br)c43)CC2)c1` [Example 17] registered a melting point of 86 to 90 °C. In the data set on COS Cell, this compound had a pIC50 of 6.39. The compound further gave a negative-log IC50 (pIC50) in data set [1] of 8.02.

In turn, `COC(=O)CNC(=O)Cc1ccc(CC(=O)N2CCC([C@H]3c4ncc(Br)cc4CCc4cc(Cl)cc(Br)c43)CC2)cc1` [Example 18] displayed a melting point of 94 to 97 °C. Further, the pIC50 in the data set on COS Cell was 6.35. The compound also gave a pIC50 in data set [1] of 8.28.

Turning to `CONC(=O)Cc1ccc(CC(=O)N2CCC([C@H]3c4ncc(Br)cc4CCc4cc(Cl)cc(Br)c43)CC2)cc1` [Example 19], the melting point was in the range of 116 to 123 °C. This compound showed a pIC50 with COS Cell of 7.05. The compound also had a pIC50 in data set [1] of 8.33.

As to `O=C(Cc1ccc(CC(=O)N2CCC([C@H]3c4ncc(Br)cc4CCc4cc(Cl)cc(Br)c43)CC2)cc1)NCCO` [Example 20], the melting point was 94 to 100 °C. Further, the pIC50 in data set [1] is below 6.85.

`NC(=O)CC1CCC(CC(=O)N2CCC(C3c4ncc(Br)cc4CCc4cc(Cl)cc(Br)c43)CC2)CC1` (stereo not drawn) [Example 22] came in with a melting point of 103 to 110 °C. In the data set on COS Cell, this compound had a pIC50 of 7.66. The compound further had a pIC50 in data set [1] of 8.20.

`NC(=O)C1CCC(CC(=O)N2CCC(C3c4ncc(Br)cc4CCc4cc(Cl)cc(Br)c43)CC2)CC1` (stereo not drawn) [Example 23] had a melting point of 145 to 152 °C. Besides, the pIC50 in the data set with COS Cell was 7.74. The pIC50 in data set [1] is 8.34.

In turn, `O=C(NCc1ccncc1)c1ccccc1CC(=O)N1CCC([C@H]2c3ncc(Br)cc3CCc3cc(Cl)cc(Br)c32)CC1` [Example 24] yielded a melting point of 134 to 138 °C. The pIC50 in data set [1] was 7.33.

`COC(=O)CNC(=O)c1ccccc1CC(=O)N1CCC([C@H]2c3ncc(Br)cc3CCc3cc(Cl)cc(Br)c32)CC1` [Example 25] had a melting point of 116 to 118 °C. Also, in data set [1], the pIC50 was 7.44.

With `O=C(Cc1ccccc1C(=O)N1CCOCC1)N1CCC([C@H]2c3ncc(Br)cc3CCc3cc(Cl)cc(Br)c32)CC1` [Example 26], the melting point lay in the range of 136 to 138 °C. The compound also showed a pIC50 in data set [1] of 7.25.

`O=C(NO)c1ccccc1CC(=O)N1CCC([C@H]2c3ncc(Br)cc3CCc3cc(Cl)cc(Br)c32)CC1` [Example 27]: the melting point fell in the range of 156 to 157 °C. The compound further gave a pIC50 in data set [1] of 7.28.

Turning to `NC(=O)[C@@H]1C[C@H]1C(=O)N1CCC([C@H]2c3ncc(Br)cc3CCc3cc(Cl)cc(Br)c32)CC1` [Example 29 (compound 54.0)], the pIC50 in data set [1] is 8.08.

`COC(=O)[C@@H]1C[C@H]1C(=O)N1CCC([C@H]2c3ncc(Br)cc3CCc3cc(Cl)cc(Br)c32)CC1` [Example 29 (compound 54.1)] had a pIC50 in data set [1] of 7.47.

Compound `COC(=O)Cc1ccc(CC(=O)N2CCC([C@H]3c4ncc(Br)cc4CCc4cc(Cl)cc(Br)c43)CC2)cc1` [Example 34] yielded a melting point of 81 to 86 °C. The same compound had a pIC50 with COS Cell of 6.74. Further, the pIC50 in data set [1] was 8.07.

Consider `O=C(O)C[C@H]1CC[C@@H](C(=O)N2CCC([C@H]3c4ncc(Br)cc4CCc4cc(Cl)cc(Br)c43)CC2)CC1` [Example 35], for which the pIC50 is 7.15 in the data set with COS Cell and 8.48 in data set [1].

On to `O=C(O)C[C@H]1CC[C@H](C(=O)N2CCC([C@H]3c4ncc(Br)cc4CCc4cc(Cl)cc(Br)c43)CC2)CC1` [Example 36], for which the results for the pIC50 (with COS Cell; in data set [1]) were 6.30 and 7.99, respectively.
